{"source": "patent US9409975B2", "about": "“Antibody binding microbial heparin binding motif to retard or prevent microbial biofilm formation on implanted medical devices” (priority 2012, dated 2016)", "key": {"[1]": {"system": "Candida albicans BWP17 wt", "test": "Filipin and calcofluor white staining microscopy with or without heparin", "type": "cell-based", "settings": "100 units/ml heparin, heparin-treated vs untreated organisms", "method": "Heparin effect on Candida albicans growth and morphology was determined. A single colony of BWP17 wt was inoculated into 3 ml YPD medium and incubated overnight at 30° C. with shaking at 225 rpm. Overnight cultures were diluted to an OD600 of 0.1 in 5 ml of YPD (yeast) or RPMI-HEPES (hyphae) in a 50 ml conical polypropylene tube and incubated in the presence or absence of 100 units/ml preservative-free pharmaceutical heparin at 30° C. for six hours. Cells (1 ml) were fixed with an equal volume of 4% formaldehyde in FACS buffer at 4° C. for one hour, then pelleted (7,000 rpm for 3 minutes) and washed with PBS. After reconstitution in 0.5 ml PBS, filipin (50 mg/ml stock solution in DMSO) was added to a final concentration of 100 μg/ml and incubated with cells at room temperature for five minutes. Cells were pelleted, washed with PBS and mounted on a slide using Fluoromount G. For calcofluor white staining, after six hours incubation, 1 μl of 1 mg/ml stock solution of calcofluor white in 0.1 N NaOH was added to 100 μl cells to a final calcofluor white concentration of 10 μg/ml.\nMicroscopy was performed by imaging filipin, PKH26, DAPI, and heparin-Alexa Fluor 488 on a Nikon Ti-E inverted microscope with a 100×CFI APO oil NA 1.49 objective. Filipin was excited with a Prior Lumen 200 metal halide light source set at 10% light output. […]"}, "[2]": {"system": "C. albicans surface proteins", "test": "nLC-MSMS semi-quantitation of C. albicans surface proteins in supernatants of heparin-treated versus untreated organisms", "type": "cell-based, Candida albicans", "method": "In other systems, heparin has been reported to cleave surface proteins (56), change protein conformation (57), and bind trypsin-sensitive lysine and arginine residues in histone H1 (58). In order to understand whether incubation with heparin changed the conformation of C. albicans surface proteins, 1×10^7 C. albicans were incubated for one hour at […] on a rotator with pharmacologic heparin (20,000 units/ml) diluted in RPMI-HEPES to a working concentration of 250 units/ml. C. albicans 1×10^7 C. albicans in an equal volume of RPMI-HEPES served as control. Supernatants were removed. 300 μl of Hep+ and Hep− supernatants were incubated with 100 μl avidin agarose beads (Thermo Scientific) for 60 min at room temperature on a rotator in the presence of 50 units heparin (Hep+); an equal volume of RPMI-HEPES was substituted for heparin in the Hep− supernatants. Beads were pelleted, and 100 μl beads were incubated with 100 μl 3.0 M NaCl for 30 mins at room temperature on a rotator. Beads were pelleted and the supernatants were withdrawn; 100 μl TCA was added to 100 μl Hep+ or 100 μl Hep− supernatants and incubated on ice overnight at 4° C. The TCA precipitates were stored at −80° C. until analysis by mass spectroscopy.\nSix biological replicates of TCA precipitated protein pellets from equal cellular equivalence of heparin-treated (Hep+) and untreated (Hep−) conditioned medium from cultures of C. albicans were each solubilized in 50 μL Laemmli gel buffer. To remove any residual TCA and to further concentrate the samples, each was subjected to buffer exchange and concentration using an Amicon ultra 3 kDa microfuge filtration cartridge at 14,000×g for 15 min with five subsequent additions of 50 μL of 1× Laemmli gel buffer between spins. The resulting retained proteins (6 Hep+ and 6 Hep−) were subsequently prepared for SDS-PAGE by combining into two pools of three samples for the Hep+ and Hep− conditioned medium. The replicate sample pools were loaded onto two 4-12% mini gels and separated using the MOPS buffer system followed by silver staining to visualize the proteins using the Sigma Proteosilver system. The proteins were prepared for identification and quantitation by mass spectrometry by gridding the gel lanes from the replicates of Hep+ and Hep− samples into 11 equal regions followed by in gel trypsin digestion and extraction of peptides as described (59)\nThe recovered peptides from the gridded gel sections were analyzed by liquid chromatography coupled nano-electrospray mass spectrometry (nLC-MSMS) on a TripleTOF 5600 mass spectrometer (AB Sciex, Toronto Canada) attached to an Eksigent (Dublin Calif.) nanoLC ultra nanoflow system. […]"}, "[3]": {"settings": "heparin 250 units/ml, compared to untreated organisms"}}, "data": [{"substance": "heparin", "values": [{"measurement": "integrity of membrane sterols (filipin) and location of septin rings (calcofluor white)", "setting": "[1]", "value": "identical"}, {"measurement": "increase in VPTTDVSVVDLTVR from Tdh3 in supernatants", "setting": "[2]; [3]", "value": "five-fold increase"}, {"measurement": "increase in intensity of IDVVDQAK from Eno1 in supernatants", "setting": "[2]; [3]", "value": "seven-fold increase"}, {"measurement": "increase in intensity of SLLDAAVK from Pgk1 in supernatants", "setting": "[2]; [3]", "value": "ten-fold increase"}, {"measurement": "increased intensities of other peptides from Eno1, Pgk1 and Tdh3", "setting": "[2]; versus corresponding peptides from untreated organisms, data not shown", "value": "10-16 fold"}]}]}
